Values joined by “and” are separate entries in the source; they are usually repeats but may differ in a detail not shown here. Equal entries are not always repeated. Results filed as inconclusive are left out.
Test system: Lewis lung carcinoma i.m., BDF1 mice, T/C %
Assay: NCI In Vivo Anticancer Drug Screen. Data for tumor model Lewis Lung Carcinoma (intramuscular) in B6D2F1 (BDF1) mice
Method: The antitumor activity of compounds was measured in mice bearing transplantable tumors. Survival or tumor size were measured and the results are expressed as the measurement made in the treated group (T) divided by the measurement made in the vehicle treated control group (C). The tumor model used in this assay is Lewis Lung Carcinoma (intramuscular) in B6D2F1 (BDF1) mice

## Cc1[nH]c(=O)[nH]c(=O)c1N(CCF)CCCl
endpoint: mean tumor weight (est.), dose: 5.0 mg/kg/injection, schedule: Q01DX011 (ip), vehicle: saline with Tween-80, higher = larger tumour
  T/C: 69 % of control
endpoint: mean tumor weight (est.), dose: 5.0 mg/kg/injection, schedule: Q01DX011 (ip), vehicle: saline, higher = larger tumour
  T/C: 81 % of control
endpoint: mean tumor weight (est.), dose: 10.0 mg/kg/injection, schedule: Q01DX011 (ip), vehicle: saline with Tween-80, higher = larger tumour
  T/C: 74 % of control
endpoint: mean tumor weight (est.), dose: 10.0 mg/kg/injection, schedule: Q01DX011 (ip), vehicle: saline, higher = larger tumour
  T/C: 80 % of control
endpoint: mean tumor weight (est.), dose: 20.0 mg/kg/injection, schedule: Q01DX011 (ip), vehicle: saline with Tween-80, higher = larger tumour
  T/C: 54 % of control
endpoint: mean tumor weight (est.), dose: 20.0 mg/kg/injection, schedule: Q01DX011 (ip), vehicle: saline, higher = larger tumour
  T/C: 28 % of control
endpoint: mean tumor weight (est.), dose: 40.0 mg/kg/injection, schedule: Q01DX011 (ip), vehicle: saline with Tween-80, higher = larger tumour
  T/C: 24 % of control
endpoint: median survival time, dose: 5.0 mg/kg/injection, schedule: Q01DX011 (ip), vehicle: saline with Tween-80, higher = longer survival
  T/C: 101 % of control
endpoint: median survival time, dose: 5.0 mg/kg/injection, schedule: Q01DX011 (ip), vehicle: saline, higher = longer survival
  T/C: 109 % of control
endpoint: median survival time, dose: 10.0 mg/kg/injection, schedule: Q01DX011 (ip), vehicle: saline with Tween-80, higher = longer survival
  T/C: 105 % of control
endpoint: median survival time, dose: 10.0 mg/kg/injection, schedule: Q01DX011 (ip), vehicle: saline, higher = longer survival
  T/C: 119 % of control
endpoint: median survival time, dose: 20.0 mg/kg/injection, schedule: Q01DX011 (ip), vehicle: saline with Tween-80, higher = longer survival
  T/C: 100 % of control

## CCCCN(C)C(=S)S[Te](SC(=S)N(C)CCCC)(SC(=S)N(C)CCCC)SC(=S)N(C)CCCC
endpoint: mean tumor weight (est.), dose: 100.0 mg/kg/injection, schedule: Q01DX011 (ip), vehicle: saline, higher = larger tumour
  T/C: 59 % of control
endpoint: mean tumor weight (est.), dose: 200.0 mg/kg/injection, schedule: Q01DX011 (ip), vehicle: saline, higher = larger tumour
  T/C: 36 % of control
endpoint: mean tumor weight (est.), dose: 400.0 mg/kg/injection, schedule: Q01DX011 (ip), vehicle: saline, higher = larger tumour
  T/C: 17 % of control
endpoint: median survival time, dose: 100.0 mg/kg/injection, schedule: Q01DX011 (ip), vehicle: saline, higher = longer survival
  T/C: 114 % of control
endpoint: median survival time, dose: 200.0 mg/kg/injection, schedule: Q01DX011 (ip), vehicle: saline, higher = longer survival
  T/C: 110 % of control
endpoint: median survival time, dose: 400.0 mg/kg/injection, schedule: Q01DX011 (ip), vehicle: saline, higher = longer survival
  T/C: 121 % of control

## CC[n+]1c(-c2ccccc2)c2cc(N)ccc2c2ccc(N)cc21
endpoint: median survival time, dose: 0.25 mg/kg/injection, schedule: Q01DX011 (ip), vehicle: steriod suspending solution, higher = longer survival
  T/C: 92 % of control
endpoint: median survival time, dose: 0.5 mg/kg/injection, schedule: Q01DX011 (ip), vehicle: steriod suspending solution, higher = longer survival
  T/C: 107 % of control
endpoint: median survival time, dose: 1.0 mg/kg/injection, schedule: Q01DX011 (ip), vehicle: steriod suspending solution, higher = longer survival
  T/C: 100 % of control
endpoint: median survival time, dose: 2.0 mg/kg/injection, schedule: Q01DX011 (ip), vehicle: steriod suspending solution, higher = longer survival
  T/C: 117 % of control
endpoint: median survival time, dose: 4.0 mg/kg/injection, schedule: Q01DX011 (ip), vehicle: steriod suspending solution, higher = longer survival
  T/C: 96 % of control
endpoint: median tumor weight (est.), dose: 0.25 mg/kg/injection, schedule: Q01DX011 (ip), vehicle: steriod suspending solution, higher = larger tumour
  T/C: 90 % of control
endpoint: median tumor weight (est.), dose: 0.5 mg/kg/injection, schedule: Q01DX011 (ip), vehicle: steriod suspending solution, higher = larger tumour
  T/C: 95 % of control
endpoint: median tumor weight (est.), dose: 1.0 mg/kg/injection, schedule: Q01DX011 (ip), vehicle: steriod suspending solution, higher = larger tumour
  T/C: 90 % of control
endpoint: median tumor weight (est.), dose: 2.0 mg/kg/injection, schedule: Q01DX011 (ip), vehicle: steriod suspending solution, higher = larger tumour
  T/C: 77 % of control
endpoint: median tumor weight (est.), dose: 4.0 mg/kg/injection, schedule: Q01DX011 (ip), vehicle: steriod suspending solution, higher = larger tumour
  T/C: 73 % of control

## CC[C@]1(O)C[C@H]2CN(CCc3c([nH]c4ccccc34)[C@@](C(=O)OC)(c3cc4c(cc3OC)N(C=O)[C@H]3[C@@](O)(C(=O)OC)[C@H](OC(C)=O)[C@]5(CC)C=CCN6CC[C@]43[C@@H]65)C2)C1
endpoint: mean tumor weight (est.), dose: 0.05 mg/kg/injection, schedule: Q01DX009 (ip), vehicle: water, higher = larger tumour
  T/C: 57 % of control
endpoint: mean tumor weight (est.), dose: 0.08 mg/kg/injection, schedule: Q01DX009 (ip), vehicle: water, higher = larger tumour
  T/C: 99 % of control
endpoint: mean tumor weight (est.), dose: 0.14 mg/kg/injection, schedule: Q01DX009 (ip), vehicle: water, higher = larger tumour
  T/C: 69 % of control
endpoint: mean tumor weight (est.), dose: 0.23 mg/kg/injection, schedule: Q01DX009 (ip), vehicle: water, higher = larger tumour
  T/C: 55 % of control
endpoint: mean tumor weight, dose: 0.12 mg/kg/injection, schedule: Q01DX011 (ip), vehicle: water, higher = larger tumour
  T/C: 116 % of control
endpoint: mean tumor weight, dose: 0.14 mg/kg/injection, schedule: Q01DX009 (ip), vehicle: water, higher = larger tumour
  T/C: 46 % of control
endpoint: mean tumor weight, dose: 0.23 mg/kg/injection, schedule: Q01DX009 (ip), vehicle: water, higher = larger tumour
  T/C: 49 % of control
endpoint: mean tumor weight, dose: 0.25 mg/kg/injection, schedule: Q01DX011 (ip), vehicle: water, higher = larger tumour
  T/C: 105 % of control
endpoint: median survival time, dose: 0.05 mg/kg/injection, schedule: Q01DX004 (ip), vehicle: water, higher = longer survival
  T/C: 107 % of control
endpoint: median survival time, dose: 0.05 mg/kg/injection, schedule: Q09DX009 (ip), vehicle: water, higher = longer survival
  T/C: 92 % of control
endpoint: median survival time, dose: 0.06 mg/kg/injection, schedule: Q01DX011 (ip), vehicle: water, higher = longer survival
  T/C: 102 % of control and 104 % of control
endpoint: median survival time, dose: 0.08 mg/kg/injection, schedule: Q01DX004 (ip), vehicle: water, higher = longer survival
  T/C: 110 % of control
endpoint: median survival time, dose: 0.08 mg/kg/injection, schedule: Q09DX009 (ip), vehicle: water, higher = longer survival
  T/C: 113 % of control
endpoint: median survival time, dose: 0.12 mg/kg/injection, schedule: Q01DX011 (ip), vehicle: water, higher = longer survival
  T/C: 92 % of control and 123 % of control
endpoint: median survival time, dose: 0.14 mg/kg/injection, schedule: Q01DX004 (ip), vehicle: water, higher = longer survival
  T/C: 98 % of control
endpoint: median survival time, dose: 0.14 mg/kg/injection, schedule: Q01DX009 (ip), vehicle: none, higher = longer survival
  T/C: 158 % of control
endpoint: median survival time, dose: 0.23 mg/kg/injection, schedule: Q01DX004 (ip), vehicle: water, higher = longer survival
  T/C: 81 % of control
endpoint: median survival time, dose: 0.23 mg/kg/injection, schedule: Q01DX009 (ip), vehicle: none, higher = longer survival
  T/C: 121 % of control
endpoint: median survival time, dose: 0.23 mg/kg/injection, schedule: Q01DX009 (ip), vehicle: water, higher = longer survival
  T/C: 123 % of control
endpoint: median survival time, dose: 0.25 mg/kg/injection, schedule: Q01DX011 (ip), vehicle: water, higher = longer survival
  T/C: 105 % of control
endpoint: median survival time, dose: 0.39 mg/kg/injection, schedule: Q01DX004 (ip), vehicle: water, higher = longer survival
  T/C: 56 % of control
endpoint: median survival time, dose: 0.39 mg/kg/injection, schedule: Q01DX009 (ip), vehicle: none, higher = longer survival
  T/C: 50 % of control
endpoint: median survival time, dose: 0.39 mg/kg/injection, schedule: Q09DX009 (ip), vehicle: water, higher = longer survival
  T/C: 58 % of control
endpoint: median survival time, dose: 0.65 mg/kg/injection, schedule: Q01DX009 (ip), vehicle: none, higher = longer survival
  T/C: 36 % of control

## Cc1nc2ccccc2nc1CBr
endpoint: mean tumor weight (est.), dose: 3.2 mg/kg/injection, schedule: Q01DX011 (ip), vehicle: saline with Tween-80, higher = larger tumour
  T/C: 64 % of control
endpoint: mean tumor weight (est.), dose: 6.3 mg/kg/injection, schedule: Q01DX011 (ip), vehicle: saline with Tween-80, higher = larger tumour
  T/C: 80 % of control
endpoint: mean tumor weight (est.), dose: 12.5 mg/kg/injection, schedule: Q01DX011 (ip), vehicle: saline with Tween-80, higher = larger tumour
  T/C: 56 % of control
endpoint: median survival time, dose: 3.2 mg/kg/injection, schedule: Q01DX011 (ip), vehicle: saline with Tween-80, higher = longer survival
  T/C: 96 % of control
endpoint: median survival time, dose: 6.3 mg/kg/injection, schedule: Q01DX011 (ip), vehicle: saline with Tween-80, higher = longer survival
  T/C: 101 % of control
endpoint: median survival time, dose: 12.5 mg/kg/injection, schedule: Q01DX011 (ip), vehicle: saline with Tween-80, higher = longer survival
  T/C: 88 % of control

## O=C(Nc1ccc(S(=O)(=O)O)cc1)c1ccc([N+](=O)[O-])cc1
endpoint: mean tumor weight (est.), dose: 3.5 mg/kg/injection, schedule: Q01DX011 (ip), vehicle: saline, higher = larger tumour
  T/C: 87 % of control
endpoint: mean tumor weight (est.), dose: 7.0 mg/kg/injection, schedule: Q01DX011 (ip), vehicle: saline, higher = larger tumour
  T/C: 120 % of control
endpoint: mean tumor weight (est.), dose: 14.0 mg/kg/injection, schedule: Q01DX011 (ip), vehicle: saline, higher = larger tumour
  T/C: 94 % of control
endpoint: mean tumor weight (est.), dose: 28.0 mg/kg/injection, schedule: Q01DX011 (ip), vehicle: saline, higher = larger tumour
  T/C: 82 % of control
endpoint: median survival time, dose: 3.5 mg/kg/injection, schedule: Q01DX011 (ip), vehicle: saline, higher = longer survival
  T/C: 92 % of control
endpoint: median survival time, dose: 7.0 mg/kg/injection, schedule: Q01DX011 (ip), vehicle: saline, higher = longer survival
  T/C: 96 % of control
endpoint: median survival time, dose: 14.0 mg/kg/injection, schedule: Q01DX011 (ip), vehicle: saline, higher = longer survival
  T/C: 105 % of control
endpoint: median survival time, dose: 28.0 mg/kg/injection, schedule: Q01DX011 (ip), vehicle: saline, higher = longer survival
  T/C: 117 % of control

## CO[C@H]1/C=C/O[C@@]2(C)Oc3c(C)c(O)c4c(O)c(c(/C=N/N5C(C)CN(Cc6ccccc6)CC5C)c(O)c4c3C2=O)NC(=O)/C(C)=C\C=C\[C@H](C)[C@H](O)[C@@H](C)[C@@H](O)[C@@H](C)[C@H](OC(C)=O)[C@@H]1C (stereo partly specified)
endpoint: median survival time, dose: 25.0 mg/kg/injection, schedule: Q02DX009 (ip), vehicle: other, higher = longer survival
  T/C: 117 % of control
endpoint: median survival time, dose: 50.0 mg/kg/injection, schedule: Q02DX009 (ip), vehicle: Klucel (hydroxypropylcellulose) (HPC), higher = longer survival
  T/C: 114 % of control
endpoint: median survival time, dose: 50.0 mg/kg/injection, schedule: Q02DX009 (ip), vehicle: other, higher = longer survival
  T/C: 107 % of control
endpoint: median survival time, dose: 200.0 mg/kg/injection, schedule: Q02DX009 (ip), vehicle: Klucel (hydroxypropylcellulose) (HPC), higher = longer survival
  T/C: 98 % of control
endpoint: median survival time, dose: 200.0 mg/kg/injection, schedule: Q02DX009 (ip), vehicle: other, higher = longer survival
  T/C: 87 % of control
endpoint: median survival time, dose: 400.0 mg/kg/injection, schedule: Q02DX009 (ip), vehicle: Klucel (hydroxypropylcellulose) (HPC), higher = longer survival
  T/C: 98 % of control

## CC(C(=O)O)N1C(=O)c2ccccc2C1=O (stereo unspecified)
endpoint: median survival time, dose: 4.0 mg/kg/injection, schedule: Q01DX009 (ip), vehicle: water, higher = longer survival
  T/C: 110 % of control
endpoint: median survival time, dose: 8.0 mg/kg/injection, schedule: Q01DX009 (ip), vehicle: water, higher = longer survival
  T/C: 107 % of control
endpoint: median survival time, dose: 16.0 mg/kg/injection, schedule: Q01DX009 (ip), vehicle: water, higher = longer survival
  T/C: 103 % of control
endpoint: median survival time, dose: 32.0 mg/kg/injection, schedule: Q01DX009 (ip), vehicle: water, higher = longer survival
  T/C: 108 % of control

Source: PubChem BioAssay AID272 (DTP/NCI, 2004)
